According to patent US20160310389A1, “Low Viscosity Hair Care Composition” (The Procter & Gamble Company, priority 2015, published 2016):

Key:
Format in all cases: physicochemical
[1] = Kinematic viscosity of surfactant base formulation with added agent (calibrated Cannon viscometers); settings: for Kinematic viscosity at 40 C., 2% oil: 2% agent in base formulation; for Lowest viscosity achieved: kinematic viscosity at 40° C., lowest over 2%, 4%, 6%, 8% agent in base formulation (24% sodium undecyl sulfate, 6% lauramidopropyl betaine, 1.6% perfume); for Kinematic viscosity at 40 C., 4% oil: 4% agent in base formulation; for Kinematic viscosity at 40 C., 6% oil: 6% agent in base formulation; for Kinematic viscosity at 40 C., 8% oil: 8% agent in base formulation
Source text: Referring to Tables 1 and 2, the base formulations were made by mixing 1.6% perfume, 24% sodium undecyl sulfate (CAS#1072-24-8) active, 6% lauramidopropyl betaine (CAS#4292-10-8) active and 60.4% deionized water which leaves 8% unfilled for the addition of a viscosity reducing agent (the balance being filled in by distilled water). For all compositions, the surfactant, water and additives including viscosity reducing agents were expected to be in a single phase.
The agents from Tables 1 and 2 were added to the base formulation at a percentage of 2%, 4%, 6%, and 8% into the above surfactant solution. The subsequent formulations were vortexed and put into oven at 60° C. overnight to form homogeneous solution. The viscosities of the formulations were measured with calibrated viscometers (Size 200/350/450) from Cannon Instrument Company (2139 High Tech Road, State College, Pa., USA, 16803).
After the equilibration, the formulations were drawn to reach the starting mark with a rubber suction bulb and the flow time between the starting mark and end mark was recorded for calculation. Each formulation was measured three times to calculate average and standard deviation. Between samples, viscometer was cleaned with water and acetone to rinse off residual.
Viscosity values were calculated based on the equation:
Viscosity (mm^2/s (cSt))=Time (s)*Constant (mm^2/s^2·(cSt/s))
The time in the above equation is the flow time recorded in the experiment and the constant numbers for each calibrated viscometer were obtained from the manuals.

[2] = SAXS correlation length of the micelles; settings: for Change in correlation length compared to control: control 51 A
Source text: Now referring to Table 4, SAXS (Small angle x-ray scattering) was used to characterize the structure of the surfactant aggregates. For these set of samples, the broad peak represents the correlation length (CL) of the micelles and was used to differentiate between the different formulations.
SAXS data was collected with a Bruker NanoSTAR (Bruker AXS Inc., Madison, Wis., U.S.A.) using the micro-focus, Cu x-ray tube, operating at 45 kV, 0.650 mA. The sample to detector distance was 112.050 cm and the detector was Vantec2K 2-dimensional area detector. Samples were placed in 2 mm quartz capillaries, sealed with expoxy resin to prevent evaporation. The sealant is permitted to cure for 2 hours at RT (room temperature) prior to loading into the SAXS sample chamber for data acquisition under vacuum with a data collection time of 1200 s. The data acquisition angular range is 0.3° to 3.0° […], to observe the presence and location of any intensity bands in the x-ray scattering pattern.
Each raw 2-D SAXS data is integrated azimuthally and plotted versus the scattering vector (q), which is expressed as a […] in units of angstroms (1/Å). • The values for q are calculated by the SAXS instrument according to the following equation: […]
Where: 2θ is the scattering angle; and λ is the wavelength used. For each formulation analyzed, the location of each intensity peak on the plot of (Intensity) I vs q is identified and recorded.

[3] = NMR self-diffusion coefficients and specific diffusivity ratio; settings: for Specific diffusivity ratio measured at 4%: diffusion coefficient of the viscosity reducing agent/diffusion coefficient of the surfactant, 4% additive; for Diffusion Coefficient (m^2/s) surfactant at 4% additive: surfactant self-diffusion
Procedure: Now referring to Table 5, the specified viscosity reducing agents were added to the formula at a level of 4% in absence of other viscosity reducing agents. Diffusion coefficients were determined using a vendor-supplied pulse sequence (“ledbpgq2s”, stimulated echo with bipolar gradients and convection compensation) using a Bruker Avance 700 MHz NMR spectrometer equipped with a Diff-30 high gradient diffusion probe. Gradient pulse durations ranged between 1700-2700 us, with diffusion periods ranging from 50-100 ms. 32 linearly-spaced gradient values were used ranging from 2%-95% of 40 A current, with resulting gradient strengths given by 30 Gauss/cm/A. Data were processed using software written in-house. It is often necessary to fit more than one diffusion coefficient to individual signals. Average diffusion coefficients are reported in these cases. Averages were calculated by averaging the reciprocals of the diffusion coefficients and then taking the reciprocal of that average.
The specific diffusivity ratio is calculated as the ratio of the diffusion coefficient of the viscosity reducing agent/diffusion coefficient of the surfactant.
Two mechanisms of viscosity reduction are hypothesized based on self-diffusion coefficients. This leads to a simple diagnostic measurement to classify perfumes by their mechanism of viscosity reduction. That diagnostic is the ratio of the perfume self-diffusion coefficient to the surfactant self-diffusion coefficient (specific diffusivity ratio). In mechanism 1, the surfactant diffusion coefficient is not reduced, and may be increased, while the perfume diffusion coefficient is faster still. In mechanism 2, the surfactant and perfume diffusion coefficient are reduced to relatively small, nearly equal values. For mechanism 1, the viscosity reducing agent diffuses faster than the surfactant (specific diffusivity ratio>1), whereas for mechanism 2, the viscosity reducing agent diffuses slower than the surfactant (specific diffusivity ratio<1).

Structure (SMILES) | Kinematic viscosity at 40 C., 2% oil [1] [cSt] | Lowest viscosity achieved [1] [cSt] | Kinematic viscosity at 40 C., 4% oil [1] [cSt] | Correlation length peak [A] ([2]; 2% oil) | Change in correlation length compared to control ([2]; 2% oil) [%] | Correlation length peak [A] ([2]; 4% oil) | Change in correlation length compared to control ([2]; 4% oil) [%] | Specific diffusivity ratio measured at 4% [3] | Diffusion Coefficient (m^2/s) surfactant at 4% additive [3] [m^2/s] | Kinematic viscosity at 40 C., 6% oil [1] [cSt] | Kinematic viscosity at 40 C., 8% oil [1] [cSt]
CCC(=O)O[C@@H]1C[C@H]2CC[C@]1(C)C2(C)C (racemic) [Iso Bornyl Propionate] | 463.1 | 463 |  |  |  |  |  |  |  |  | 
CCCCCCCC(OC)OC [1,1-Dimethoxyoctane] | 500.7 | 308 | 308.1 |  |  |  |  |  |  |  | 
CC(C)CC=C(C=O)C(C)C [2-Isopropyl-5-methyl-2-hexenal] | 332.3 | 332 |  |  |  |  |  |  |  |  | 
CC(=O)OCCC(C)CCCC(C)C (stereo not drawn) [3,7-Dimethyloctyl Acetate] | 445.7 | 446 |  |  |  |  |  |  |  |  | 
CCC(CC(C)CC)=NO (stereo not drawn) [5-Methyl-3-Heptanone Oxime] | 246.3 | 246 |  |  |  |  |  |  |  |  | 
COc1ccc(C=O)cc1 [Anisic aldehyde] |  |  |  | 51 | 0.0 | 51 | 0.0 | 3.3012 | 1.8945E−11 |  | 
CCCCOC(=O)c1ccccc1O [Butyl Salicylate] | 367.9 | 368 |  |  |  |  |  |  |  |  | 
CC12CCC(CC1=O)C2(C)C (stereo not drawn) [Camphor Gum] | 365.8 | 127 | 127.2 |  |  |  |  |  |  |  | 
CC(=O)OCCC(C)CCC=C(C)C (stereo not drawn) [Citronellyl Acetate] | 362.7 | 363 |  |  |  |  |  |  |  |  | 
CCC(=O)OC1CC2CC1C1CC=CC21 (stereo not drawn) [Cyclaprop] | 404.2 | 404 |  |  |  |  |  |  |  |  | 
CCCCCCC1C(=O)CCC1C(=O)OC (stereo not drawn) [Dihyro Iso Jasmonate] | 334.9 | 119 | 119.1 |  |  |  |  |  |  |  | 
C=C(C)[C@H]1CC=C(C)CC1 [Dipentene] | 307.6 | 35 | 74.5 |  |  |  |  |  |  | 35.1 | 42.6
CCO [Ethanol] | 205.6 | 29 | 111.0 | 51 | 0.0 | 49 | −3.9 |  |  | 50.8 | 29.2
CC(C)=CCC/C(C)=C/COC(=O)Cc1ccccc1 [Geranyl Phenyl Acetate] | 224.0 | 34 | 76.0 | 55 | 7.8 | 60 | 17.6 | 0.8119 | 3.6554E−12 | 34.3 | 36.6
OCC(O)CO [Glycerin] |  |  |  | 51 | 0.0 | 51 | 0.0 |  |  |  | 
CCCCCCCCCCCCCCCC [Hexadecane] | 21.1 | 18 | 18.1 | 59 | 15.7 | 66 | 29.4 | 0.9998 | 4.1943E−12 |  | 
CC(C)COC(=O)c1ccccc1O [Iso Butyl Salicylate] | 408.7 | 409 |  |  |  |  |  |  |  |  | 
CCCCCCCCCCCCCC(=O)OC(C)C [Iso Propyl Myristate] | 234.2 | 30 | 53.7 |  |  |  |  | 0.6401 | 2.1874E−12 | 30.4 | 45.0
CC(C)CCOC(=O)c1ccccc1O [Isoamyl Salicylate] | 460.3 | 193 | 193.2 |  |  |  |  |  |  |  | 
CCCCCC(=O)OCC(C)C [Isobutyl Hexanoate] | 390.0 | 109 | 177.9 |  |  |  |  |  |  | 140.9 | 109.4
COC(C)(C)C1CC=C(C)CC1 (stereo not drawn) [Orange Flower Ether] | 552.2 | 419 | 418.8 |  |  |  |  |  |  |  | 
CC1=CC=C(C(C)C)CC1 [alpha-Terpinene] | 324.4 | 42 | 96.0 |  |  |  |  |  |  | 41.5 | 46.7
CC1=CCC(C(C)C)=CC1 [gamma-Terpinene] | 238.0 | 32 | 65.0 |  |  |  |  |  |  | 31.7 | 
